Data taken from publication PMC10419174, “WR1065 conjugated to thiol-PEG polymers as novel anticancer prodrugs: broad spectrum efficacy, synergism, and drug resistance reversal” (Frontiers in Oncology, 2023).
Several values for one entry are separate records, joined by “and”; a condition that tells them apart may be missing. Identical values can stand only once. Marks after values point to notes of the source that are not given here.

Legend:
Assay in all cases: cells
Prostate LNCaP cells = conditions: at TGI
Experimental: (§1) The percentage of growth inhibition was calculated as follows: […]

Ovary SKOV3 cells = conditions: for Fold increase in efficacy: drug alone ÷ drug in 4SP65-DDP combination
Experimental: as §1

Prostate DU145 cells = system: Prostate DU145 cells
Experimental: as §1

A549 NSCLC cells = system: A549 NSCLC cells
Experimental: as §1

Prostate PC3 cells = system: Prostate PC3 cells
Experimental: as §1

[1] = 48-h treatment, amifostine ND = not definable up to 500 µM
[2] = drug alone, 48 h, 4SP65/cisplatin study
[3] = drug alone, 48 h, 4SP65/cisplatin study, ND = not definable, highest concentration in parentheses
[4] = drug alone, 48 h, 4SP65/gefitinib study
[5] = drug alone, 48 h, 4SP65/gefitinib study, ND = not definable, highest concentration in parentheses

Substance: 4-star-PEG-S-S-WR1065 [4SP65]
- Dose reduction value 1LP65 ÷ 4SP65 (Prostate LNCaP cells): 11 fold
- GI50 (Ovary SKOV3 cells; [1]): 4 ± 0.8 µM
- IC50 (Ovary SKOV3 cells; [1]): 5.1 ± 0.9 µM
- LC99 (Ovary SKOV3 cells; [1]): 10.5 ± 1.5 µM
- TGI (Ovary SKOV3 cells; [1]): 6.8 ± 0.9 µM and 6.8 µM
- fold more effective as a cytostatic agent than PRIMA-1 or APR-246 (Ovary SKOV3 cells; TP53-null SKOV3 cells): 3.3- to 16 fold
- Dose reduction value 1LP65 ÷ 4SP65 (Ovary SKOV3 cells; at GI50): 10 fold
- Dose reduction value AMF ÷ 4SP65 (Ovary SKOV3 cells; at GI50): 20 fold
- Dose reduction value 1LP65 ÷ 4SP65 (Ovary SKOV3 cells; at IC50): 8.9 fold
- Dose reduction value AMF ÷ 4SP65 (Ovary SKOV3 cells; at IC50): 58 fold
- Dose reduction value 1LP65 ÷ 4SP65 (Ovary SKOV3 cells; at LC50): 7.5 fold
- Dose reduction value 1LP65 ÷ 4SP65 (Ovary SKOV3 cells; at LC99): 9.4 fold
- Dose reduction value 1LP65 ÷ 4SP65 (Ovary SKOV3 cells; at TGI): 7.4 fold
- Fold increase in efficacy (Ovary SKOV3 cells; at GI50): 1.5** fold
- Fold increase in efficacy (Ovary SKOV3 cells; at IC50): 1.8** fold
- Fold increase in efficacy (Ovary SKOV3 cells; at LC50, GoE = gain of effect): 1.3** fold
- Fold increase in efficacy (Ovary SKOV3 cells; at LC99, GoE = gain of effect): 1.3* fold
- Fold increase in efficacy (Ovary SKOV3 cells; at TGI, GoE = gain of effect): 1.5* fold
- GI50 (Ovary SKOV3 cells; [2]): 4.3 ± 1 µM
- IC50 (Ovary SKOV3 cells; [2]): 5.2 ± 1 µM
- LC99 (Ovary SKOV3 cells; [3]): 10.0 ± 0.8 µM
- TGI (Ovary SKOV3 cells; [3]): 7.3 ± 0.8 µM
- CC50 (Prostate DU145 cells): 11.1 ± 0.1 µM
- GI50 (Prostate DU145 cells; [1]): 7.5 ± 1.2 µM
- IC50 (Prostate DU145 cells; [1]): 8.5 ± 1 µM
- LC99 (Prostate DU145 cells; [1]): 12.0 ± 0.1 µM
- TGI (Prostate DU145 cells; [1]): 9.5 ± 0.7 µM and 9.5 µM
- Dose reduction value 1LP65 ÷ 4SP65 (Prostate DU145 cells; at GI50): 3.5 fold
- Dose reduction value AMF ÷ 4SP65 (Prostate DU145 cells; at GI50): 17 fold
- Dose reduction value 1LP65 ÷ 4SP65 (Prostate DU145 cells; at IC50): 3.5 fold
- Dose reduction value AMF ÷ 4SP65 (Prostate DU145 cells; at IC50): 38 fold
- Dose reduction value 1LP65 ÷ 4SP65 (Prostate DU145 cells; at LC50): 6.4 fold
- Dose reduction value 1LP65 ÷ 4SP65 (Prostate DU145 cells; at LC99): 7.0 fold
- Dose reduction value 1LP65 ÷ 4SP65 (Prostate DU145 cells; at TGI): 5.6 fold
- gains of cytostatic and cytolytic activities, range (A549 NSCLC cells; 4SP65-cisplatin combined): 1.9- to 2.4 fold
- GI50 (A549 NSCLC cells; [1]): 5.3 ± 1.1 µM
- IC50 (A549 NSCLC cells; [1]): 6.8 ± 1.3 µM
- LC99 (A549 NSCLC cells; [1]): 14.9 ± 3.8 µM
- TGI (A549 NSCLC cells; [1]): 8.5 ± 1.5 µM and 8.5 µM
- LC99, drug in combination (CMB) (A549 NSCLC cells; amount of each drug in combination, ratio 50% 4SP65:50% DDP, 48 h): 8 µM
- Dose reduction value 1LP65 ÷ 4SP65 (A549 NSCLC cells; at GI50): 9.9 fold
- Dose reduction value AMF ÷ 4SP65 (A549 NSCLC cells; at GI50): 43 fold
- Dose reduction value 1LP65 ÷ 4SP65 (A549 NSCLC cells; at IC50): 9.8 fold
- Dose reduction value AMF ÷ 4SP65 (A549 NSCLC cells; at IC50): 37 fold
- Dose reduction value 1LP65 ÷ 4SP65 (A549 NSCLC cells; at LC50): 13 fold
- Dose reduction value 1LP65 ÷ 4SP65 (A549 NSCLC cells; at LC99): 13 fold
- Dose reduction value 1LP65 ÷ 4SP65 (A549 NSCLC cells; at TGI): 15 fold
- Fold increase in efficacy (A549 NSCLC cells; drug alone ÷ drug in 4SP65-DDP combination, at GI50): 2.4* fold
- Fold increase in efficacy (A549 NSCLC cells; drug alone ÷ drug in 4SP65-DDP combination, at IC50): 2.2* fold
- Fold increase in efficacy (A549 NSCLC cells; drug alone ÷ drug in 4SP65-DDP combination, at LC50): 1.9* fold
- Fold increase in efficacy (A549 NSCLC cells; drug alone ÷ drug in 4SP65-DDP combination, at LC99): 1.9* fold
- Fold increase in efficacy (A549 NSCLC cells; drug alone ÷ drug in 4SP65-DDP combination, at TGI): 1.9* fold
- Fold increase in efficacy (A549 NSCLC cells; drug alone ÷ drug in 4SP65-GEF combination, at GI50): 1.5** fold
- Fold increase in efficacy (A549 NSCLC cells; drug alone ÷ drug in 4SP65-GEF combination, at IC50): 1.4** fold
- Fold increase in efficacy (A549 NSCLC cells; drug alone ÷ drug in 4SP65-GEF combination, at LC50, GoE = gain of effect): 1.1 (NS) fold
- Fold increase in efficacy (A549 NSCLC cells; drug alone ÷ drug in 4SP65-GEF combination, at LC99, GoE = gain of effect): 1.0 (NS) fold
- Fold increase in efficacy (A549 NSCLC cells; drug alone ÷ drug in 4SP65-GEF combination, at TGI, GoE = gain of effect): 1.5** fold
- GI50 (A549 NSCLC cells; [2]): 5.4 ± 2.5 µM
- IC50 (A549 NSCLC cells; [2]): 6.8 ± 1.3 µM
- LC99 (A549 NSCLC cells; [2]): 14.9 ± 3.8 µM
- TGI (A549 NSCLC cells; [2]): 8.3 ± 1.5 µM
- GI50 (A549 NSCLC cells; [4]): 6 ± 0.6 µM
- IC50 (A549 NSCLC cells; [4]): 7.4 ± 0.7 µM
- LC99 (A549 NSCLC cells; [5]): 12.3 ± 3.8 µM
- TGI (A549 NSCLC cells; [5]): 11.3 ± 1.5 µM
- CC50 (Prostate PC3 cells): 4.5 ± 0.6 µM
- GI50 (Prostate PC3 cells; [1]): 0.7 ± 0.2 µM
- IC50 (Prostate PC3 cells; [1]): 2 ± 0.3 µM
- LC99 (Prostate PC3 cells; [1]): 5.8 ± 0.8 µM
- TGI (Prostate PC3 cells; [1]): 2.1 ± 0.5 µM and 2.1 µM
- Dose reduction value 1LP65 ÷ 4SP65 (Prostate PC3 cells; at GI50): 25 fold
- Dose reduction value AMF ÷ 4SP65 (Prostate PC3 cells; at GI50): 58 fold
- Dose reduction value 1LP65 ÷ 4SP65 (Prostate PC3 cells; at IC50): 19 fold
- Dose reduction value AMF ÷ 4SP65 (Prostate PC3 cells; at IC50): 52 fold
- Dose reduction value 1LP65 ÷ 4SP65 (Prostate PC3 cells; at LC50): 13 fold
- Dose reduction value 1LP65 ÷ 4SP65 (Prostate PC3 cells; at LC99): 15 fold
- Dose reduction value 1LP65 ÷ 4SP65 (Prostate PC3 cells; at TGI): 19 fold
- Dose reduction value AMF ÷ 4SP65 (Prostate PC3 cells; at TGI): 143 fold
